Test results: publication PMC6792352, “Limited Chemical Structural Diversity Found to Modulate Thyroid Hormone Receptor in the Tox21 Chemical Library” (Environmental Health Perspectives, 2019)
Where a name gives a salt, the structure may show the parent alone.

test: in vitro; details: rat, gh3-tre-luc cells, AC50 (uM) modified / 1000

SMILES | CC50 at 24 h [µM]
CC(C)(C)NCC(O)c1cc(Cl)c(N)c(C(F)(F)F)c1 (stereo not drawn) [Mabuterol hydrochloride] | 22.3
CC1(C)CC(O)CC(C)(C)N1 [2,2,6,6-Tetramethyl-4-piperidinol] | > 90
O=C(NC(=O)c1c(F)cccc1F)Nc1ccc(Cl)c(Oc2ncc(C(F)(F)F)cc2Cl)c1 [Fluazuron] | > 50
O=C(O)c1ccc(NC(=O)[C@H](Cc2ccc(O)cc2)NC(=O)c2ccccc2)cc1 [Bentiromide sodium] | > 50
C[C@H]1C[C@H]2[C@@H]3CCC4=CC(=O)C=C[C@]4(C)[C@H]3C(=O)C[C@]2(C)[C@@]1(O)C(=O)CO [Meprednisone] | > 50
COc1ccc(OC)c(CC(C)N)c1 (stereo not drawn) [2,5-Dimethoxyamphetamine hydrochloride] | > 100
CC1CC(=O)O1 (stereo not drawn) [beta-Butyrolactone] | > 100
FC(F)(F)C(F)(F)C(F)(F)C(F)(F)C(F)(F)C(F)(F)CCI [1H,1H,2H,2H-Perfluorooctyl iodide] | > 50
CCCCN(CCO)CCO [N-Butyldiethanolamine] | > 90
CC1=C(CC(=O)O)c2cc(F)ccc2/C1=C\c1ccc(S(C)(=O)=O)cc1 [Sulindac sulfone] | > 50
C=CC(=O)OCCC(=O)O [2-Carboxyethyl acrylate] | > 100
CC[N+](CC)(CC)CC [Tetraethylammonium chloride] | > 100
Clc1ccc(C2(Cn3cncn3)CC(Br)CO2)c(Cl)c1 (stereo not drawn) [Bromuconazole] | > 90
CCC(=O)Oc1ccc(/C(CC)=C(\CC)c2ccc(OC(=O)CC)cc2)cc1 [Diethylstilbestrol dipropionate] | > 90
CCC[Si](OC)(OC)OC [Trimethoxypropylsilane] | > 90
C=CC(C)(CCC=C(C)C)OC(=O)c1ccccc1N (stereo not drawn) [Linalyl anthranilate] | > 90
S=C(S)NCCNC(=S)S [Nabam-sodium] | > 90
CCCCCCCCCCCCc1ccc(O)cc1 [4-Dodecylphenol] | 15.6
Cc1nnc2n1-c1sc(CCc3ccc(CC(C)C)cc3)cc1C(c1ccccc1Cl)=NC2C (stereo not drawn) [Israpafant] | 13.6
CC1(C)SC(C)(C)SC(C)(C)S1 [Trithioacetone] | > 90
COc1ccc(C(=O)c2ccc(OC)cc2O)c(O)c1 [2,2'-Dihydroxy-4,4'-dimethoxybenzophenone] | > 90
O=C(N[C@@H]1N=C(c2ccccc2F)c2cccc3c2N(CC3)C1=O)c1cc2ccccc2[nH]1 [N-[(3R)-1-(2-Fluorophenyl)-4-oxo-3,4,6,7-tetrahydro[1,4]diazepino[6,7,1-hi]indol-3-yl]-1H-indole-2-carboxamide] | > 50
O=C(C(=O)c1ccco1)c1ccco1 [alpha-Furil] | > 90
CCN(CCC#N)c1ccc(N=Nc2c(Cl)cc([N+](=O)[O-])cc2Cl)cc1 [C.I. Disperse Orange 37] | 33.4

SMILES | CC50 at 24 h [µM]
CCCCCCCC/C=C/CCCCCCCC(=O)OCCO [Polyoxyethylene monoleate] | > 100
Nc1ccc(S(=O)(=O)Nc2ccccc2)cc1 [Sulfabenz] | > 50
OCC(O)COc1ccc(Cl)cc1 (stereo not drawn) [Chlorphenesin] | > 50
OCCC(F)(F)C(F)(F)C(F)(F)C(F)(F)C(F)(F)C(F)(F)F [6:2 Fluorotelomer alcohol] | > 90
CC(=O)O[C@]1(C(C)=O)CC[C@H]2[C@@H]3C=C(Cl)C4=CC(=O)[C@@H]5C[C@@H]5[C@]4(C)[C@H]3CC[C@@]21C [Cyproterone acetate] | 66.8
CCCCCCCCCCCCCCCC(=O)NCCO [Palmitoylethanolamide] | > 50
O=C(OCCO)c1ccccc1O [2-Hydroxyethyl salicylate] | > 50
O=c1n(CCO)c(=O)n(CCO)c(=O)n1CCO [Tris(2-hydroxyethyl) isocyanurate] | > 90
ON=CC=NO [Glyoxime] | > 90
CCCCCCCCCC#N [Decanenitrile] | > 90
O=C(O)CCCC[C@@H]1SC[C@@H]2NC(=O)N[C@@H]21 [Biotin] | > 90
O=CNNC=O [1,2-Diformylhydrazine] | > 90
CC(C(=O)O)c1ccc2c(c1)CC(=O)c1ccccc1S2 (stereo not drawn) [Zaltoprofen] | > 50
CC(C)(C)NCC(O)CSc1nc(-c2ccc(C(N)=O)s2)cs1 (stereo not drawn) [Arotinolol hydrochloride] | > 50
Cc1ccccc1C(=O)Nc1ccc(C(=O)N2CCCC(O)c3cc(Cl)ccc32)c(C)c1 (stereo not drawn) [Tolvaptan] | > 50
CC(C)[C@H](N)C(=O)OCC(CO)OCn1cnc2c(=O)nc(N)[nH]c21 (stereo partly drawn) [Valganciclovir hydrochloride] | > 50
Cc1cccc(N)c1N [2,3-Diaminotoluene] | > 90
NS(=O)(=O)c1cc2c(cc1Cl)N=CNS2(=O)=O [Chlorothiazide] | > 90
O=C(O)Cc1c[nH]c2ccccc12 [Indole-3-acetic acid] | > 90
OCc1cccc(Oc2ccccc2)c1 [3-Phenoxybenzenemethanol] | > 90
CC(=O)OC/C=C/c1ccccc1 [3-Phenylprop-2-en-1-yl acetate] | > 90
CN(C)CCN(Cc1ccccc1)c1ccccn1 [Tripelennamine citrate] | > 50
CC=C(C)C#N [2-Methyl-2-butenenitrile] | > 90
COC(=O)c1ccccc1S(=O)(=O)NC(=O)Nc1nc(C)nc(OC)n1 [Metsulfuron-methyl] | > 90

SMILES | CC50 at 24 h [µM]
Nc1ccncc1N [3,4-Diaminopyridine] | > 50
O=[N+]([O-])c1cccc(S(=O)(=O)NCCNS(=O)(=O)c2cccc([N+](=O)[O-])c2)c1 [Dinsed] | > 50
Cc1occc(=O)c1OC(=O)C(C)C [Maltol isobutyrate] | > 90
NNc1ccc(C(=O)O)cc1 [4-Hydrazinobenzoic acid] | > 90
CC1(C)[C@H]2CC[C@]1(C)C(=O)C2 [Camphor] | > 90
OCC1CCC(CO)CC1 (stereo not drawn) [1,4-Cyclohexanedimethanol] | > 90
O=C1c2ccccc2C(=O)C1c1ccc2ccccc2n1 [D & C Yellow 11] | > 50
OCc1c2ccccc2cc2ccccc12 [9-Anthracenemethanol] | > 90
C=C1CC[C@H]2C[C@@H]1C2(C)C [beta-Pinene] | > 90
NS(=O)(=O)c1ccc(NC(=O)CCC(=O)O)cc1 [Sulfasuccinamide] | > 50
Brc1c2ccccc2c(Br)c2ccccc12 [9,10-Dibromoanthracene] | > 5
N=C1N=C(N)c2cc3ccccc3cc21 [1,3-Diiminobenz(f)isoindoline] | 39.2
CC[C@H]1OC(=O)[C@H](C)[C@@H](O[C@H]2C[C@@](C)(OC)[C@@H](O)[C@H](C)O2)[C@H](C)[C@@H](O[C@@H]2O[C@H](C)C[C@H](N(C)C)[C@H]2O)[C@](C)(O)C[C@@H](C)[C@@H]2N[C@@H](COCCOC)O[C@H]([C@H]2C)[C@]1(C)O [Dirithromycin] | > 50
CC(C)N(c1ccccc1)C(C)C [N,N-Diisopropylaniline] | > 90
C[C@]12CC[C@@H]3c4ccc(OC(=O)c5ccccc5)cc4CC[C@H]3[C@@H]1CC[C@@H]2O [Estradiol benzoate] | > 50
O=C(OC[C@H]1O[C@](O)(COC(=O)c2cccnc2)[C@@H](OC(=O)c2cccnc2)[C@@H]1OC(=O)c1cccnc1)c1cccnc1 [Nicofuranose] | > 50
Nc1ccc(N)c2ccccc12 [1,4-Naphthalenediamine] | > 90
CCCC(CCC)C(=O)O [Valproic acid] | > 90
O=C1OC2(c3ccc(O)cc3Oc3cc(O)ccc32)c2ccccc21 [Fluorescein] | > 50
CCC(C)(NC(=O)c1cc(Cl)c(C)c(Cl)c1)C(=O)CCl (stereo not drawn) [Zoxamide] | 15
CC(S)C(=O)NCC(=O)O (stereo not drawn) [Tiopronin] | > 50
CNc1ccc([N+](=O)[O-])cc1 [N-Methyl-4-nitroaniline] | 54.8
CCCCC(C)C(=O)O (stereo not drawn) [2-Methylhexanoic acid] | > 90

same assay, conditions: rat, gh3-tre-luc cells, AC50 (uM) modified / 1000, Tox21_110001=Tox21_110931; viability, 1 nM T3 present, 24 h

SMILES | CC50 at 24 h [µM]
Cc1ncsc1CCCl [Clomethiazole] | > 50

same assay, conditions: rat, gh3-tre-luc cells, AC50 (uM) modified / 1000, Tox21_110001=Tox21_112294; viability, 1 nM T3 present, 24 h

SMILES | CC50 at 24 h [µM]
C#CC(C)(O)CC (stereo not drawn) [3-Methyl-1-pentyn-3-ol] | > 50

same assay, conditions: rat, gh3-tre-luc cells, AC50 (uM) modified / 1000, Tox21_110001=Tox21_112890; viability, 1 nM T3 present, 24 h

SMILES | CC50 at 24 h [µM]
CN(C)CCc1c[nH]c2ccc(O)cc12 [Bufotenine] | > 90

same assay, conditions: rat, gh3-tre-luc cells, AC50 (uM) modified / 1000, Tox21_110001=Tox21_113042; viability, 1 nM T3 present, 24 h

SMILES | CC50 at 24 h [µM]
O=C(O)Cc1ccccc1 [Phenylacetic acid] | > 50

same assay, conditions: rat, gh3-tre-luc cells, AC50 (uM) modified / 1000, Tox21_110001=Tox21_200140; viability, 1 nM T3 present, 24 h

SMILES | CC50 at 24 h [µM]
O=C(O)C(Br)CBr (stereo not drawn) [2,3-Dibromopropionic acid] | > 90

same assay, conditions: rat, gh3-tre-luc cells, AC50 (uM) modified / 1000, Tox21_110001=Tox21_200533; viability, 1 nM T3 present, 24 h

SMILES | CC50 at 24 h [µM]
O=C(O)Cc1ccccc1 [Phenylacetic acid] | > 90

same assay, conditions: rat, gh3-tre-luc cells, AC50 (uM) modified / 1000, Tox21_110001=Tox21_201292; viability, 1 nM T3 present, 24 h

SMILES | CC50 at 24 h [µM]
Cc1cc(-c2ccc(N)c(C)c2)ccc1N [3,3'-Dimethylbenzidine] | > 90

same assay, conditions: rat, gh3-tre-luc cells, AC50 (uM) modified / 1000, Tox21_110001=Tox21_202244; viability, 1 nM T3 present, 24 h

SMILES | CC50 at 24 h [µM]
Clc1ccccc1-c1ccccc1Cl [2,2'-Dichlorobiphenyl] | > 100

same assay, conditions: rat, gh3-tre-luc cells, AC50 (uM) modified / 1000, Tox21_110001=Tox21_300994; viability, 1 nM T3 present, 24 h

SMILES | CC50 at 24 h [µM]
CCOC(=O)C(Cl)Cc1cc(-n2nc(C)n(C(F)F)c2=O)c(F)cc1Cl (stereo not drawn) [Carfentrazone-ethyl] | > 90

same assay, conditions: rat, gh3-tre-luc cells, AC50 (uM) modified / 1000, Tox21_110001=Tox21_400056; viability, 1 nM T3 present, 24 h

SMILES | CC50 at 24 h [µM]
O=[N+]([O-])c1cc([N+](=O)[O-])c2ccccc2c1 [1,3-Dinitronaphthalene] | > 90
